Like-named read-outs stand apart in the source and are kept apart here.
Key:
[1] = Cytotoxicity test on Vero cells (alamarBlue); format: cell-based, African green monkey
Method: (§1) Vero cells (kidney of African green monkey epithelial cell line) were cultured at 37 °C in the MEM liquid medium supplemented with 10% FBS (EuroClone SpA), 1% levoglutamine (EuroClone SpA), and 1% penicillin–streptomycin (EuroClone SpA). THP-1 cells (human leukemia monocytic cell line) were cultured at 37 °C in the RPMI 1640 (EuroClone SpA) liquid medium supplemented with 10% FBS (EuroClone SpA), 1% levoglutamine (EuroClone SpA), 1% penicillin–streptomycin, and mercaptoethanol (Gibco) 50 μM.
(§2) The cytotoxicity of the compounds was determined using mammalian kidney epithelial cells (Vero cell line) and human acute monocytic leukemia cell line (THP-1). Cells were seeded (10^5 cells mL^–1) on 96-well plates with the complete MEM medium and incubated with test compounds at 37 °C in a 5% CO2 incubator. After 72 h of incubation, 20 μL of the alamarBlue reagent was added to each well and incubated at 37 °C for 24 h. Reduction of resazurin to resorufin was evaluated after 24 h by absorbance measurement at the Multiskan ascent plate reader (Thermo Fisher Scientific Inc.,) at 550 and 630 nm. […] Each experiment was performed in duplicate.

[2] = system: intramacrophage amastigotes of L. donovani; assay: Amastigote growth inhibition assay in infected THP-1 cells (Giemsa, infectivity index); format: cell-based, Leishmania donovani; settings: for IC50: Leishmania donovani, intracellular amastigotes in THP-1, 72 h, read-out: IC50 against amastigotes of L. donovani
Method: To evaluate the efficacy of the compounds on the intracellular form of L. donovani, human acute monocytic leukemia cell line (THP-1) was infected with L. donovani promastigotes. Cells were harvested and seeded in a 96-well plate (10^5 cells mL^–1) in the complete RPMI 1640 medium, and PMA (0.1 μM, Cayman Chemical Company, Ann Arbor, Michigan, USA) was added for obtaining maturation and cell adherence. Cells were incubated at 37 °C in a 5% CO2 incubator. After 48 h, the medium was replaced with the fresh medium containing stationary-phase promastigotes that were then phagocyted by monocytic cells and transformed into intracellular amastigotes. After 24 h of incubation, newly synthesized compounds were added and the plates were incubated at 37 °C in a 5% CO2 incubator for 72 h. After incubation, wells were washed, fixed, and stained with Giemsa. Staining was detected using a Nikon Eclipse E200 light microscope (Nikon, Tokyo, Japan). The infectivity index (% of infected macrophages × average number of amastigotes per macrophage) was determined by counting at least 100 cells in duplicate cultures.

[3] = Cytotoxicity test on THP-1 cells (alamarBlue); format: cell-based; settings: human, THP-1 cells (acute monocytic leukemia cell line); CSV supplement; read-out: CC50 against human acute monocytic leukemia cell line (THP-1)
Method: as §1, §2
Cytotoxicity in THP-1 cell line
We performed additional cytotoxicity tests employing THP-1 cell line. We also calculated the
corresponding selectivity indexes, as the ratio between CC50 of THP-1 cell line and IC50 on amastigotes
THP-1 cells than on VERO cells; thus showing a not significant variance of selectivity index.
Table S3. Inhibitory activity of tetrahydropyrans 3 and endoperoxides 2 against amastigotes of L.
donovani, cytotoxicity in human acute monocytic leukemia cell line (THP-1) and selectivity index (SI).
Tetrahydropyran IC50 CC50 Endoperoxide IC50 CC50
a (µM)b (µM)c a (µM)b (µM)c
a Compounds tested as racemates. b IC50 represents the concentration of a compound that causes 50% growth inhibition.
Results represent the mean (± standard deviation, SD) of three independent experiments performed in duplicate. c CC50
represents 50% cytotoxic concentration on THP-1 cells. d Selectivity index (SI) = CC50/IC50. […]

[4] = system: L. donovani promastigotes (MHOM/NP/02/BPK282/0cl4); assay: Promastigote growth inhibition assay (alamarBlue); format: cell-based, Leishmania donovani; settings: for IC50: Leishmania donovani; for Selectivity index (SI) = CC50/IC50: Vero CC50 / IC50 on promastigotes; for Activity against promastigotes under the bioassay conditions: 40 μM compound
Method: The bioactivity of the new tetrahydropyrans 3 was initially evaluated against the extracellular promastigote forms of L. donovani (MHOM/NP/02/BPK282/0cl4) as the reference strain, indicative of the leishmaniasis in the Old World. The results were expressed as IC50, i.e., the concentration of the product required to inhibit the parasite growth by 50%. When a compound could inhibit the promastigote growth, its cytotoxicity was also evaluated on Vero cells (Table 1) and on THP-1 cells (see the Supporting Information, Table S3) and the corresponding selectivity indexes (SIs) were calculated. The performance of each tetrahydropyran 3 was compared with that of the corresponding endoperoxide 2 (Table 1).
Promastigotes of a L. donovani reference strain (MHOM/NP/02/BPK282/0cl4) were maintained at 26 °C in a liquid custom-made medium, HOMEM Cat. no: 1140-082 (Gibco Thermo Fisher Scientific Inc., Waltham, USA), complete composition: S-MEM (Eagle) 1 × 1 liter pack, glucose (1–2 g), sodium bicarbonate (0.3 g), sodium pyruvate (0.11 g), p-aminobenzoic acid (1 mg), biotin (0.1 mg), HEPES (4.77–5.96 g), MEM amino acids (10 mL), MEM nonessential amino acids (10 mL), pH 7.5–7.6, supplemented with 20% fetal bovine serum (FBS, EuroClone SpA, Milan, Italy)[123] and 1% penicillin–streptomycin (EuroClone SpA).
To evaluate the efficacy of the compounds on the extracellular forms of L. donovani, promastigotes in their late log/stationary phase were seeded with the complete HOMEM medium at 10^6 cells mL^–1 in 96-well plates and incubated with tested compounds at a range concentration of 600–1.6 μM in a 26 °C incubator for 72 h. The antileishmanial drug amphotericin B was used as the positive control, and untreated promastigotes were the negative control. Each experiment was performed in duplicate. Stock solution of the compounds was 8 mM in DMSO. […] The alamarBlue assay includes a colorimetric growth indicator based on detection of metabolic activity. Specifically, the system incorporates an oxidation–reduction (REDOX) indicator that changes color in response to chemical reduction of the growth medium resulting from cell growth. The method monitors the reducing environment of proliferating cells; the cell-permeable resazurin is added (nonfluorescent form, blue color) and, upon entering cells, is reduced to resorufin (fluorescent form, red color) as a result of cellular metabolic activity. Evaluation was performed by adding 20 μL of alamarBlue and incubating at 26 °C for 24 h. The reducing environment was evaluated after 24 h by absorbance measurement at the Multiskan ascent plate reader (Thermo Fisher Scientific Inc.) at 550 and 630 nm.

[5] = system: L. donovani promastigotes (MHOM/NP/02/BPK282/0cl4); assay: Promastigote growth inhibition assay (alamarBlue); format: cell-based; settings: Leishmania donovani, HOMEM with 10% FBS
[6] = system: L. donovani promastigotes; assay: Promastigote growth inhibition in the presence of an iron chelator (DFO or DFP), isobologram; format: cell-based, Leishmania donovani; settings: for Interaction with the iron chelator DFO (isobologram, ΣFIC): synergism <0.5, antagonism >4.0, else additivity
Method: At first, we determined IC50 and CC50 values of the iron chelator DFO (187 and >400 μM, respectively). Then, the effect of the iron chelator presence on the bioactivity of the two compounds was studied by coincubating 2a and 3a with DFO at different concentrations. The variation of IC50 of the compounds in relation to the different doses of DFO was determined by the alamarBlue assay (Table 3), and the isobole technique was employed to depict the interactions of 2a and 3a with DFO (Figure 6).
The isobole technique was used for depicting synergistic or antagonistic interaction between the iron chelator and the two compounds on the parasite growth (Figure 6). Combinations are expressed as the sum of the fractional inhibitory concentrations (ΣFIC), and FIC values are defined as synergism (<0.5), antagonism (>4.0), and additivity (no interaction). The strength of synergism (or antagonism) is indicated by the degree of deviation from the line of additivity.
[…]. Each compound was added using a concentration range including the IC50 of each compound. Each experiment was performed in duplicate. The viability of the parasites was determined by the alamarBlue assay. The fractional inhibitory concentration (FIC; FIC = IC50 of the drug in the combination/IC50 of the drug when tested alone) of each compound was calculated and plotted as an isobologram.

[7] = system: promastigotes of Leishmania donovani strains; design: method as in earlier work; settings: Figure 1; read-out: IC50 on promastigotes of L. donovani strains; cited from earlier work
[8] = chlorocebus sabaeus, Vero cells (kidney epithelial cell line), 72 h, alamarBlue, read-out: CC50 (50% cytotoxic concentration) on Vero cells
[9] = THP-1 CC50 / IC50 on amastigotes
[10] = Vero CC50 / IC50 on amastigotes
[11] = 72 h, alamarBlue, HOMEM 20% FBS, compounds as racemates, read-out: IC50 (concentration causing 50% growth inhibition) against promastigotes of L. donovani

## CO[C@]1(C)OCC(c2ccccc2)(c2ccccc2)C[C@@H]1COCc1cn(CCC[P+](c2ccccc2)(c2ccccc2)c2ccccc2)nn1.[Br-] (racemic) [3d, (3-(4-(((2-Methoxy-2-methyl-5,5-diphenyltetrahydro-2H-pyran-3-yl)methoxy)methyl)-1H-1,2,3-triazol-1-yl)propyl)triphenylphosphonium bromide]
[1]; [8]
  CC50 at 72 h: 92 ± 8.7 µM
[2]
  IC50: 2.8 ± 0.7 µM
[2]; [9]
  Selectivity index (SI) = CC50/IC50: 22.9
[2]; [10]
  Selectivity index (SI) = CC50/IC50: 32.8
[3]
  CC50 at 72 h: 64.1 µM
[4]; [11]
  IC50: 18 ± 3 µM
[4]
  Selectivity index (SI) = CC50/IC50: 5.1

## CO[C@]1(C)OOC(C)(C)C[C@@H]1CNCCCn1ccnc1 [2c]
[4]
  Activity against promastigotes under the bioassay conditions: inactive
[4]; [11]
  IC50: > 40 µM

## CO[C@]1(C)OCC(c2ccccc2)(c2ccccc2)C[C@@H]1CNCCCn1ccnc1 (racemic) [3b, 3-(1H-Imidazol-1-yl)-N-((2-methoxy-2-methyl-5,5-diphenyltetrahydro-2H-pyran-3-yl)methyl)propan-1-amine]
[1]; [8]
  CC50 at 72 h: 42.3 ± 3.2 µM
[2]
  IC50: 3.2 ± 0.9 µM
[2]; [9]
  Selectivity index (SI) = CC50/IC50: 15.6
[2]; [10]
  Selectivity index (SI) = CC50/IC50: 13.2
[3]
  CC50 at 72 h: 50 µM
[5]
  IC50: 3200 nM
[6]
  Interaction with the iron chelator DFO (isobologram, ΣFIC): additive effects
[4]; [11]
  IC50: 5.8 ± 0.9 µM
[4]
  Selectivity index (SI) = CC50/IC50: 7.3

## Br.CO[C@]1(C)OOC(c2ccccc2)(c2ccccc2)C[C@@H]1COCc1cn(CCC[P+](c2ccccc2)(c2ccccc2)c2ccccc2)nn1 [2d]
[1]; [8]
  CC50 at 72 h: 238 ± 36.8 µM
[2]
  IC50: 16.5 ± 1.5 µM
[2]; [9]
  Selectivity index (SI) = CC50/IC50: 8.6
[2]; [10]
  Selectivity index (SI) = CC50/IC50: 14.4
[3]
  CC50 at 72 h: 142 µM
[4]; [11]
  IC50: 13.8 ± 2.2 µM
[4]
  Selectivity index (SI) = CC50/IC50: 17.3

## CCCCCCCCCCCCCCCCOP(=O)([O-])OCC[N+](C)(C)C [Miltefosine]
[7]
  IC50: 1.9 to 68.1 µM

## CCCCC1(CCCC)C[C@H](CNCCCCNc2ccc([N+](=O)[O-])c3nonc23)[C@](C)(OC)OO1 [2f, N^1-((6,6-Dibutyl-3-methoxy-3-methyl-1,2-dioxan-4-yl)methyl)-N^4-(7-nitrobenzo[c][1,2,5]oxadiazol-4-yl)butane-1,4-diamine]
[1]; [8]
  CC50 at 72 h: 12.1 µM
[4]; [11]
  IC50: 11.4 µM
[4]
  Selectivity index (SI) = CC50/IC50: 1.1

## Cc1c(O)c(=O)ccn1C [DFP, deferiprone, reference compound]
[1]; cell line not given, read-out: CC50 of the iron chelator DFP
  CC50 at 72 h: 143 µM
[4]; read-out: IC50 of the iron chelator DFP
  IC50: 219 µM

## CCCCC1(CCCC)C[C@H](CNCCCCNc2c3ccc(Cl)cc3nc3ccc(OC)cc23)[C@](C)(OC)OO1 [2e, N^1-(6-Chloro-2-methoxyacridin-9-yl)-N^4-((6,6-dibutyl-3-methoxy-3-methyl-1,2-dioxan-4-yl)methyl)butane-1,4-diamine]
[1]; [8]
  CC50 at 72 h: 1.3 µM
[4]; [11]
  IC50: 0.5 µM
[4]
  Selectivity index (SI) = CC50/IC50: 2.6

## C[C@H]1[C@H](OC(=O)CCC(=O)O)O[C@@H]2O[C@@]3(C)CC[C@H]4[C@H](C)CC[C@@H]1[C@@]24OO3 [Artesunate, reference compound]
[2]
  IC50: > 40 µM
[4]; [11]
  IC50: > 40 µM

## CO[C@]1(C)OOC(c2ccccc2)(c2ccccc2)C[C@@H]1CNCCCn1ccnc1 [2b]
[1]; [8]
  CC50 at 72 h: 49 ± 2.7 µM
[2]
  IC50: 5 ± 1 µM
[2]; [9]
  Selectivity index (SI) = CC50/IC50: 10.5
[2]; [10]
  Selectivity index (SI) = CC50/IC50: 9.8
[3]
  CC50 at 72 h: 52.5 µM
[5]
  IC50: 1200 nM
[6]; Leishmania donovani, no DFO, read-out: IC50 against promastigotes, absence of DFO (Table S4)
  IC50: 7.5 µM
[6]
  Interaction with the iron chelator DFO (isobologram, ΣFIC): additive effects
[4]; [11]
  IC50: 6.3 ± 1.1 µM
[4]
  Selectivity index (SI) = CC50/IC50: 7.7

## CCCCC1(CCCC)CO[C@@](C)(OC)[C@@H](CNCCCCNc2c3ccc(Cl)cc3nc3ccc(OC)cc23)C1 (racemic) [3e, N^1-(6-Chloro-2-methoxyacridin-9-yl)-N^4-((5,5-dibutyl-2-methoxy-2-methyltetrahydro-2H-pyran-3-yl)methyl)butane-1,4-diamine]
[1]; [8]
  CC50 at 72 h: 1.2 µM
[4]; [11]
  IC50: 0.9 µM
[4]
  Selectivity index (SI) = CC50/IC50: 1.3

## CC(=O)N(O)CCCCCNC(=O)CCC(=O)N(O)CCCCCNC(=O)CCC(=O)N(O)CCCCCN [DFO, desferrioxamine, reference compound]
[1]; cell line not given, read-out: CC50 of the iron chelator
  CC50 at 72 h: > 400 µM
[4]; 72 h, read-out: IC50 (concentration causing 50% growth inhibition) against promastigotes of L. donovani
  IC50: 187 µM

## CO[C@]1(C)OCC(C)(C)C[C@@H]1CNCCCn1ccnc1 (racemic) [3c, 3-(1H-Imidazol-1-yl)-N-((2-methoxy-2,5,5-trimethyltetrahydro-2H-pyran-3-yl)methyl)propan-1-amine]
[4]
  Activity against promastigotes under the bioassay conditions: inactive
[4]; [11]
  IC50: > 40 µM

From PMC8018184, “Evaluation of the Pharmacophoric Role of the O–O Bond in Synthetic Antileishmanial Compounds: Comparison between 1,2-Dioxanes and Tetrahydropyrans” (Journal of Medicinal Chemistry, 2020)
